Read-outs that look alike come from different tables or passages of the source.
Experiments:
S. aureus SPase = S. aureus SPase (Staphylococcus aureus, UniProt P0A070); test: Biochemical activity
E. coli SPase = E. coli SPase (Escherichia coli, UniProt P00803); test: Biochemical activity
E. coli (MG1655) = details: wild type MG1655; included for reference; cited from earlier work
[1] = tested on: methicillin resistant S. aureus (MRSA) strain USA300; details: included for reference, cited from earlier work
[2] = tested on: S. aureus (MSSA) strain 8325; details: wild type MSSA strain 8325; included for reference; cited from earlier work

S. aureus SPase, sequence (P0A070 whole entry): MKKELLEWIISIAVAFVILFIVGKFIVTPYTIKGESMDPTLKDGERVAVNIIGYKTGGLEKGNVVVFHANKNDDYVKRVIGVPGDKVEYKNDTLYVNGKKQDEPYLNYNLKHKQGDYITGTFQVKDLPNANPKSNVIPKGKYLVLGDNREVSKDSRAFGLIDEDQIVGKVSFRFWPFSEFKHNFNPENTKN
E. coli SPase, sequence (P00803 whole entry): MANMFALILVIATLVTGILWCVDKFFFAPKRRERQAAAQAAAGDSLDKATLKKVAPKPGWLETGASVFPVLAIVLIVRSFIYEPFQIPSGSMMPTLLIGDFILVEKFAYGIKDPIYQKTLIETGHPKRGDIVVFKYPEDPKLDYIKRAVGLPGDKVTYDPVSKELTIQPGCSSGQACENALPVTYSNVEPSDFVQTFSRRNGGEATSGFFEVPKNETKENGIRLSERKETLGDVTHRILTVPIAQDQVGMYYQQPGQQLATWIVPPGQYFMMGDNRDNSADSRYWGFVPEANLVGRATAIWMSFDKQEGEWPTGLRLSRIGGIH

For `CCCCCCCCCCCCCCCC(=O)N(C)[C@H](CO)C(=O)N[C@H](C)C(=O)NCC(=O)N(C)[C@@H]1C(=O)N[C@@H](C)C(=O)N[C@H](C(=O)NCP(=O)(O)O)Cc2ccc(O)c(c2)-c2cc1ccc2O` [Compound 1], the “loss of activity relative to parent arylomycin A-C16” value (S. aureus SPase) was ~ 10 fold and the “loss of activity relative to parent arylomycin A-C16” value (E. coli SPase) was ~ 10 fold.
For `CCCCCCCCCCCCCCCC(=O)N(C)[C@H](CO)C(=O)N[C@H](C)C(=O)NCC(=O)N(C)[C@@H]1C(=O)N[C@@H](C)C(=O)N[C@H](C(=O)NCP(=O)(Oc2ccccc2)Oc2ccccc2)Cc2ccc(O)c(c2)-c2cc1ccc2O` [Compound 4], the “change of affinity/activity relative to parent, in words” value (S. aureus SPase) was “lost virtually all affinity” and the “change of affinity/activity relative to parent, in words” value (E. coli SPase) was “lost virtually all affinity”.
For `CCCCCCCCCCCCCCCC(=O)N(C)[C@H](CO)C(=O)N[C@H](C)C(=O)NCC(=O)N(C)[C@@H]1C(=O)N[C@@H](C)C(=O)N[C@H](C(=O)NCC=O)Cc2ccc(O)c(c2)-c2cc1ccc2O` [Compound 5], the “more potent than arylomycin A-C16” value (S. aureus SPase) was 40 fold and the “more potent than arylomycin A-C16” value (E. coli SPase) was 5 fold.
With `CCCCCCCCCCCCCCCC(=O)N(C)[C@H](CO)C(=O)N[C@H](C)C(=O)NCC(=O)N(C)[C@@H]1C(=O)N[C@@H](C)C(=O)N[C@H](CC(=O)NCC=O)Cc2ccc(O)c(c2)-c2cc1ccc2O` [Compound 6] the “change of affinity/activity relative to parent, in words” value (S. aureus SPase) was “lost virtually all activity” and the “change of affinity/activity relative to parent, in words” value (E. coli SPase) was “lost virtually all activity”.
With `CCCCCCCCCCCCCCCC(=O)N(C)[C@H](CO)C(=O)N[C@H](C)C(=O)NCC(=O)N(C)[C@@H]1C(=O)N[C@@H](C)C(=O)N[C@H](C(=O)O)Cc2ccc(O)c(c2)-c2cc1ccc2OP(=O)(O)O` [Compound 7] the “IC50 difference relative to arylomycin A-C16” value (S. aureus SPase) was ≤ 2 fold and the “IC50 difference relative to arylomycin A-C16” value (E. coli SPase) was ≤ 2 fold.
With `CCCCCCCCCCCCCCCC(=O)N(C)[C@H](CO)C(=O)N[C@H](C)C(=O)NCC(=O)N(C)[C@@H]1C(=O)N[C@@H](C)C(=O)N[C@H](C(=O)NCC=O)Cc2ccc(O)c(c2)-c2cc1ccc2OP(=O)(OCc1ccccc1)OCc1ccccc1` [Compound 8] the “lower affinity on the glycyl aldehyde backbone” value (E. coli SPase; Hpg modification on glycyl aldehyde scaffold (of 5)) was 15 fold.
With `CCCCCCCCCCCCCCCC(=O)N(C)[C@H](CO)C(=O)N[C@H](C)C(=O)NCC(=O)N(C)[C@@H]1C(=O)N[C@@H](C)C(=O)N[C@H](C(=O)O)Cc2ccc(O)c(c2)-c2cc1ccc2OCCN` [Compound 9] the “IC50 difference relative to arylomycin A-C16” value (S. aureus SPase) was ≤ 2 fold and the “IC50 difference relative to arylomycin A-C16” value (E. coli SPase) was ≤ 2 fold.
With `CCCCCCCCCCCCCCCC(=O)N(C)[C@H](CO)C(=O)N[C@H](C)C(=O)NCC(=O)N(C)[C@@H]1C(=O)N[C@@H](C)C(=O)N[C@H](C(=O)O)Cc2ccc(O)c(c2)-c2cc1ccc2OCCO` [Compound 11] the “IC50 difference relative to arylomycin A-C16” value (S. aureus SPase) was ≤ 2 fold and the “IC50 difference relative to arylomycin A-C16” value (E. coli SPase) was ≤ 2 fold.
For `CCCCCCCCCCCCCCCC(=O)N(C)[C@H](CO)C(=O)N[C@H](C)C(=O)NCC(=O)N(C)[C@@H]1C(=O)N[C@@H](C)C(=O)N[C@H](C(=O)O)Cc2ccc(O)c(c2)-c2cc1ccc2O` [arylomycin A-C16], the “MIC E. coli” value (E. coli (MG1655)) is given as >64 µg/mL, the “MIC MRSA” value ([1]; listed as A-C16) is given as >64 µg/mL and the “MIC MRSA” value [1] is given as “no detectable activity”. The “MIC S. aureus” value [2] was >64 µg/mL.
